# In patent publication US20230016424A1, “HYBRID AMIDE DERIVATIVES OF AMPHOTERICIN B” (The Board of Trustees of the University of Illinois, priority 2019, published 2023):
# Key:
# [1] = test system: C. albicans SN250, C. albicans, C. krusei, C. glabrata, C. tropicalis, A. fumigatus 91, 1163, 1100; experiment: Average MIC over the tested strains; format: cell-based; design: Avg. MIC of AmB amide: unit not given here; conditions: for Avg. MIC of AmB amide: value of the corresponding C16 amide of AmB, not of the C2’epi compound
# A. fumigatus 1100 = experiment: MIC; format: cell-based
# C. krusei = experiment: MIC; format: cell-based
# C. tropicalis = experiment: MIC; format: cell-based
# C. albicans SN250 = experiment: MIC; format: cell-based, Candida albicans
# A. fumigatus 1163 = experiment: MIC; format: cell-based
# C. glabrata = experiment: MIC; format: cell-based
# C. albicans = experiment: MIC; format: cell-based
# A. fumigatus 91 = experiment: MIC; format: cell-based
# [2] = Tables 8 and 9, average over the 8 listed strains
# [3] = Table 12, C16 amides of C2'epiAmB
# [4] = Table 13, C16 amides of C2’epiAmB
MIC A. fumigatus 91 (A. fumigatus 91) [µM],Structure (SMILES),"Average MIC [1, 2] [µM]",MIC A. fumigatus 1100 (A. fumigatus 1100) [µM],MIC C. krusei (C. krusei) [µM],MIC C. tropicalis (C. tropicalis) [µM],MIC C. albicans SN250 (C. albicans SN250) [µM],MIC A. fumigatus 1163 (A. fumigatus 1163) [µM],MIC C. glabrata (C. glabrata) [µM],MIC C. albicans (C. albicans) [µM],"Average MIC [1, 3] [µM]",Avg. MIC of AmB amide [1],"Average MIC [1, 4] [µM]"
,CC1C=CC=CC=CC=CC=CC=CC=CC(OC2OC(C)C(O)C(N)C2O)CC2OC(O)(CC(O)CC(O)C(O)CCC(O)CC(O)CC(=O)OC(C)C(C)C1O)CC(O)C2C(=O)NC1CCCC1 (centres unmarked) [AR5],1063,1500,500,500,500,,,,,,
,CC1C=CC=CC=CC=CC=CC=CC=CC(OC2OC(C)C(O)C(N)C2O)CC2OC(O)(CC(O)CC(O)C(O)CCC(O)CC(O)CC(=O)OC(C)C(C)C1O)CC(O)C2C(=O)NC1CCCCC1 (centres unmarked) [AR6],891,1500,,500,500,1000,750,,,,
,CC1C=CC=CC=CC=CC=CC=CC=CC(OC2OC(C)C(O)C(N)C2O)CC2OC(O)(CC(O)CC(O)C(O)CCC(O)CC(O)CC(=O)OC(C)C(C)C1O)CC(O)C2C(=O)NC1CCCCCC1 (centres unmarked) [AR7],1469,,1000,,,,2000,,,,
,CC1C=CC=CC=CC=CC=CC=CC=CC(OC2OC(C)C(O)C(N)C2O)CC2OC(O)(CC(O)CC(O)C(O)CCC(O)CC(O)CC(=O)OC(C)C(C)C1O)CC(O)C2C(=O)NC1CCCCCCCCCCC1 (centres unmarked) [AR12],5000,8000,8000,3000,,,,2000,,,
,CC1C=CC=CC=CC=CC=CC=CC=CC(OC2OC(C)C(O)C(N)C2O)CC2OC(O)(CC(O)CC(O)C(O)CCC(O)CC(O)CC(=O)OC(C)C(C)C1O)CC(O)C2C(=O)NC1CCCCCCCCC1 (centres unmarked) [AR-10],2250,,1000,,1000,,2000,,,,
,CC1C=CC=CC=CC=CC=CC=CC=CC(OC2OC(C)C(O)C(N)C2O)CC2OC(O)(CC(O)CC(O)C(O)CCC(O)CC(O)CC(=O)OC(C)C(C)C1O)CC(O)C2C(=O)NCCC#N (centres unmarked) [BO],,,,500,,1500,,,1.188,0.42,
4000,CC1C=CC=CC=CC=CC=CC=CC=CC(OC2OC(C)C(O)C(N)C2O)CC2OC(O)(CC(O)CC(O)C(O)CCC(O)CC(O)CC(=O)OC(C)C(C)C1O)CC(O)C2C(=O)NCC(F)F (centres unmarked) [BQ],,,,,,,,,1.625,0.30,1625
,CC1C=CC=CC=CC=CC=CC=CC=CC(OC2OC(C)C(O)C(N)C2O)CC2OC(O)(CC(O)CC(O)C(O)CCC(O)CC(O)CC(=O)OC(C)C(C)C1O)CC(O)C2C(=O)NC1COCC1O (centres unmarked) [BR],,,,500,,,,,1.688,0.38,1250
